Test results as given in PubChem BioAssay (NCI).
Values joined by “and” are separate entries in the source; they are usually repeats but may differ in a detail not shown here. Equal entries are not always repeated.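 Tested at 5 concentrations; 48 h exposure; 96-well plates; endpoints linearly interpolated, else capped at highest concentration. At the GI50, growth is halved. TGI denotes the concentration required for complete inhibition of growth.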

Columns and labels:
Assay in all cases: inhibition of tumour cell growth, NCI panel, 48 h
SNB-75 CNS = tested on: SNB-75 CNS
NCI-H522 lung = tested on: NCI-H522 lung
HL-60(TB) leukemia = tested on: HL-60(TB) leukemia
SN12C renal = tested on: SN12C renal
SK-MEL-28 melanoma = tested on: SK-MEL-28 melanoma
CCRF-CEM leukemia = tested on: CCRF-CEM leukemia
HCC-2998 colon = tested on: HCC-2998 colon
UACC-62 melanoma = tested on: UACC-62 melanoma
K-562 leukemia = tested on: K-562 leukemia
LOX IMVI melanoma = tested on: LOX IMVI melanoma

| Compound | TGI (SNB-75 CNS) | TGI (NCI-H522 lung) [µM] | TGI (HL-60(TB) leukemia) | TGI (SN12C renal) [µM] | TGI (SK-MEL-28 melanoma) [µM] | TGI (CCRF-CEM leukemia) [µM] | TGI (HCC-2998 colon) [µM] | TGI (UACC-62 melanoma) | TGI (K-562 leukemia) [µM] | TGI (LOX IMVI melanoma) [µM] | GI50 (SNB-75 CNS) [µM] | GI50 (NCI-H522 lung) | GI50 (HL-60(TB) leukemia) | GI50 (SN12C renal) | GI50 (SK-MEL-28 melanoma) | GI50 (LOX IMVI melanoma) | GI50 (CCRF-CEM leukemia) | GI50 (HCC-2998 colon) | GI50 (UACC-62 melanoma) | GI50 (K-562 leukemia) |
| --- | --- | --- | --- | --- | --- | --- | --- | --- | --- | --- | --- | --- | --- | --- | --- | --- | --- | --- | --- | --- |
| C/C(=N\NS(=O)(=O)c1ccc(C)cc1)c1ccc[n+]([O-])n1 | > 100 µM | > 100 | 91 µM | > 100 | > 100 | 82.5 | > 100 | > 100 µM | > 100 |  |  |  |  |  |  |  |  |  |  |  |
| S=C(Nc1ccccc1)Nc1[nH]c(=S)sc1-c1nc2ccccc2[nH]1 | 78.5 µM | > 100 | > 100 µM | > 100 | > 100 | > 100 | > 100 | > 100 µM | > 100 | > 100 |  |  |  |  |  |  |  |  |  |  |
| CCOP(=O)(OCC)/C(C#N)=C\c1cccc2ccccc12 | 88.5 µM | > 100 | > 62.8 µM | > 100 | > 100 | 97.7 | > 100 | > 100 µM | > 100 | > 59.4 |  |  |  |  |  |  |  |  |  |  |
| COc1ccc2nc3ccc(OC)cc3c(SCCCN)c2c1 | 27.9 µM | 3.09 | 9.49 µM | 25.5 | 3.86 | 4.11 | 30.7 | 39.4 µM | 3.89 | 5.26 | 13 | 1.51 µM | 4.34 µM | 10.8 µM | 1.99 µM | 2.22 µM | 1.76 µM | 13.2 µM | 12 µM | 1.67 µM |
| COc1ccccc1Cn1cc2c(c1)-c1oncc1CC2 | 9.7 µM | 5.08 | 0.814 µM | > 100 | > 100 |  | 6.87 | > 100 µM | > 33.5 | 23.1 | 0.396 | 1.22 µM | 0.268 µM | 0.728 µM | 2.52 µM | 0.946 µM | 0.29 µM | 0.873 µM | 1.11 µM | 0.391 µM |
| COc1cc[nH]c1/C=C1\C(=O)Nc2ccc(F)c(C#CC3(O)CCOCC3)c21 | 1.94 µM | 4.53 | 1.6 µM | > 25 | 3.11 | 1.86 | 2.59 | 0.929 µM | > 25 | 1.77 | 0.338 | 1.08 µM | 0.686 µM | 0.615 µM | 0.677 µM | 0.537 µM | 0.713 µM | 0.676 µM | 0.375 µM | 1.36 µM |
| Nc1ncnc2occ(-c3ccc(NC(=O)Nc4cc(C(F)(F)F)cc(C(F)(F)F)c4)cc3)c12 | 4.88 µM | 5.67 | 12.9 µM | 5.51 | 7.77 | 19.2 | 8.27 | 6.68 µM | 9.21 | 6.83 | 1.42 | 2.55 µM | 4.13 µM | 2.12 µM | 4.24 µM | 3.27 µM | 4.5 µM | 4.63 µM | 3.26 µM | 0.925 µM |
| CC1(C)N=C(N)N=C(N)N1c1ccc(OCC(=O)Nc2cccc(S(=O)(=O)F)c2)c(Cl)c1 | > 100 µM | > 100 | > 100 µM | > 100 | > 100 | > 100 | > 100 |  | > 100 | > 100 |  |  |  |  |  |  |  |  |  |  |
| O=C(O)c1cc(Cl)cc(NC(=O)C(Cl)Cl)c1Cl | > 100 µM | > 100 | > 100 µM | > 100 | > 100 | > 100 | > 100 | > 100 µM | > 100 | > 100 |  |  |  |  |  |  |  |  |  |  |
| COc1ccc2c(c1O)[C@@]13C=C(O)C(=O)C=C1[C@@H](C2)N(C)CC3 | > 100 µM | > 100 | > 100 µM | > 100 | > 100 | > 100 | > 100 | > 100 µM | > 100 | > 100 |  |  |  |  |  |  |  |  |  |  |
| Cn1c(=O)c2c3oc(=O)cc(O)c3c(=O)n3c4ccccc4n(c1=O)c23 | 87.8 µM |  | 78.7 µM | > 100 |  | > 100 | > 100 | > 100 µM | 65.8 | 82.4 |  |  |  |  |  |  |  |  |  |  |
| CC1=CC2=C(C)C3(CC3)[C@@](C)(O)C(=O)C2=C1 | 0.425 µM | 0.296 | 0.587 µM | 0.557 | 0.394 | > 1 | 0.406 | 0.44 µM | > 1 | 0.594 |  |  |  |  |  |  |  |  |  |  |
| Cn1c(=O)n(-c2ccc(C(C)(C)C#N)cc2)c2c3cc(-c4cnc5ccccc5c4)ccc3ncc21 | 0.0464 µM and 0.0263 µM |  | 2.4 µM and > 5.01 µM | > 100 |  | > 100 | > 100 | 0.0809 µM and 0.0513 µM and 0.0445 µM | > 100 | > 100 | < 0.001 | < 0.0107 µM and 0.00646 µM and < 0.0112 µM | 0.0701 µM and 0.0705 µM and 0.0783 µM | 0.0101 µM and 0.00461 µM and < 0.01 µM | 0.016 µM and 0.0328 µM and < 0.0123 µM | < 0.01 µM and 0.00522 µM | < 0.01 µM and 0.00575 µM and < 0.0109 µM | < 0.01 µM and 0.0061 µM | 0.0112 µM and 0.00494 µM and < 0.01 µM | 0.0315 µM and 0.00731 µM and 0.0118 µM |
